Source: patent publication US20130014428A1, “METHODS OF MONITORING AND CONTROLLING THE WALNUT TWIG BEETLE, PITYOPHTHORUS JUGLANDIS” (The United States of America as Represented by the …, priority 2011, published 2013)

Experiments:
[1] = tested on: walnut twig beetle (WTB), Pityophthorus juglandis; assay: Example 1 Field Test 3: flight response to X with and without enantiomers of trans-conophthorin; type: in vivo; conditions: yellow sticky card traps, Pleasanton CA
Description: Field Bioassays of Semiochemicals. To test the attractiveness of the various compounds of interest, some of the commercially available materials listed above were poured into 15 ml capped polyethylene bottles (Product #s A1-1050/002, A1-1055/002; Contech Enterprises Inc., Delta, British Columbia, Canada) and attached to yellow sticky card traps (Trécé, Adair, OK). In addition, synthesized (+) and (−) enantiomers of trans-conophthorin were tested in 400 μl polyethylene Eppendorf microcentrifuge tubes. Four field studies were conducted (Table 2) that tested the flight responses to: 3-methyl-2-buten-l-ol and related isomers (Field Test 1); 3-methyl-2-buten-l-ol with and without racemic trans-conophthorin (Field Test 2); 3-methyl-2-buten-l-ol with and without the purified enantiomers of trans-conophthorin (Field Test 3); and 3-methyl-2-buten-l-ol with and without racemic chalcogran (Field Test 4).
Statistical Analysis. Field Tests 1-4 were each analyzed for treatment effect by using Friedman's non-parametric analysis of variance. (See Zar, J. H. 2010. Biostatistical Analysis, 5th Ed. Pearson Prentice Hall, New Jersey). Males and females were subjected to separate analyses. All treatments within experiments yielding a significant treatment effect were compared by using an a posteriori Nemenyi test (Zar 2010) with experimentwise α=0.05. Sex ratios of responding WTB were determined using Cochran's method for unbiased sampling (See Cochran, W. G. 1977. Sampling Techniques, 3rd ed. John Wiley, New York), with 95% confidence intervals calculated by using the Clopper-Pearson method. (See Zar, J. H. 2010. Biostatistical Analysis, 5th Ed. Pearson Prentice Hall, New Jersey).

WTB [2] = assay: Trap height: 4-unit Lindgren funnel traps baited with X; type: in vivo, Pityophthorus juglandis; conditions: for trap catches, female WTB / trap catches, male WTB: 15 to 80 mg/d
Description: In another experiment, the effect of trap height on the flight response of WTB was also tested with 4-unit Lindgren funnel traps at Wolfskill Experimental Orchards from late summer to early fall. The traps were each baited with the commercial version of 3-methyl-2-buten-1-ol (15 to 80 mg/d, Contech pouch) and placed at 45, 123, 199, and 271 cm (hereafter 0.5, 1.2, 2.0, and 2.7 m) from the orchard floor (measured from the floor to the middle of the trap). Traps were attached to individual 3 m metal conduit poles by using a thick piece of wire threaded through a hole drilled in the conduit pole and the eyebolt attached to the top of the funnel trap. (See Seybold, S. J., Dallara, P. L., Hishinuma, S. M., and Flint, M. L. Detecting and Identifying the Walnut Twig Beetle: Monitoring Guidelines for the Invasive Vector of Thousand Cankers Disease of Walnut, University of California Agriculture and Natural Resources, Statewide Integrated Pest Management Program, 11 pp., Apr. 30, 2012.) Three blocks of treatments were installed, trap catches were collected daily during periods of high flight activity, and the treatments were re-randomized among the four trap stations within a block each time that the traps were emptied.
Statistical Analyses. Analyses of treatment effects for the tests of trap type were performed by using Friedman's non-parametric analysis of variance or a sign test, depending on the number of treatments. (See Zar, J. H. 2010. Biostatistical Analysis. 5th ed. Pearson Prentice Hall, Englewood Cliffs, N.J.) Analysis of treatment effects for the Rain•X experiment was performed by using a Wilcoxon paired sample test. Id. Multiple comparisons for experiments with more than two treatments were performed with an a posteriori Nemenyi test with experimentwise α=0.05. Id. In all cases, male and female WTB were analyzed separately. Proportions of female WTB responding to treatments were calculated and 95% confidence intervals determined by using the Clopper-Pearson method. Id.

WTB [3] = assay: Two release rate (pouch vs. bottle) experiment, 4-unit Lindgren funnel traps; type: in vivo, Pityophthorus juglandis; conditions: for trap catches, female WTB / trap catches, male WTB: N=40
Description: Field Testing of Various Release Rates of 3-methyl-2-buten-1-ol. The flight response of WTB to two release rates of 3-methyl-2-buten-1-ol was tested at the Wolfskill Experimental Orchards (the Juglans collection of the USDA ARS National Clonal Germplasm Repository in Winters, Solano Co., Calif.) in late spring. The two release rates were: 1) 15-80 mg/d (depending on temperature, as per manufacturer's data), delivered from a commercially available LDPE plastic pouch (Product #300000736, RD-1039, Contech Enterprises Inc., Delta, BC, Canada); and 2) 5 mg/d (based on laboratory assessments at 25° C. and 30° C.), delivered from a 15 ml polyethylene bottle charged with 15 ml of 3-methyl-2-buten-1-ol [≧98% chemical purity, product #W364703, SAFC (=Sigma-Aldrich), St. Louis Mo.]. The pouch or bottle was suspended in the middle of a 4-unit Lindgren funnel trap (Contech), attached to the funnel strut so it rested on the inside surface of the third funnel (counted from the trap top), without blocking the central axis/interior hole of the trap. The trap cup was filled with propylene glycol-based recreational vehicle/marine antifreeze to a depth of about 2.5 to 5 cm, and the traps were hung from poles at a height of approximately 3 m. (See Seybold, S. J., Dallara, P. L., Hishinuma, S. M., and Flint, M. L. Detecting and Identifying the Walnut Twig Beetle: Monitoring Guidelines for the Invasive Vector of Thousand Cankers Disease of Walnut, University of California Agriculture and Natural Resources, Statewide Integrated Pest Management Program, 11 pp., Apr. 30, 2012). The two treatments were replicated in four spatial blocks and the treatments were re-randomized between the two trap stations in a block each time the traps were emptied (nearly every day).
Statistical Analyses. Analysis of treatment effects for the pouch vs. bottle experiment was done by using a sign test. (See Zar, J. H. 2010. Biostatistical Analysis. 5th ed. Pearson Prentice Hall, Englewood Cliffs, N.J.) The other four experiments were analyzed for treatment effect by using Friedman's non-parametric analysis of variance. Id. In all experiments, males and females were analyzed separately. All treatments within experiments yielding a significant treatment effect were compared by using an a posteriori Nemenyi test with experimentwise α=0.05. Id. For all experiments, differences among proportions of female WTB responding to treatments were analyzed by comparing 95% confidence intervals determined with the Clopper-Pearson method. Id.

[4] = release rate 5 mg/d (bottle with 15 ml load)
[5] = release rate 15-80 mg/d (pouch)

`CC(C)=CCO` [X, 3-methyl-2-buten-1-ol] was tested, and the “proportion of females responding” value [1] was 0.80, the “trap catches, female WTB” value ([1]; about one month in fall, N=15) was 47 and the “trap catches, male WTB” value ([1]; about one month in fall, N=15) was 12. The “proportion of females responding” value (WTB [2]; 0.5 m trap) was 0.76, the “trap catches, female WTB” value (WTB [2]; 0.5 m trap) was 392 and the “trap catches, male WTB” value (WTB [2]; 0.5 m trap) was 125. The “proportion of females responding” value (WTB [2]; 1.2 m trap) was 0.77, the “trap catches, female WTB” value (WTB [2]; 1.2 m trap) was 469 and the “trap catches, male WTB” value (WTB [2]; 1.2 m trap) was 139. For the same molecule, the “proportion of females responding” value (WTB [2]; 2.0 m trap) was 0.77, the “trap catches, female WTB” value (WTB [2]; 2.0 m trap) was 875 and the “trap catches, male WTB” value (WTB [2]; 2.0 m trap) was 265. The “proportion of females responding” value (WTB [2]; 2.7 m trap) was 0.77, the “trap catches, female WTB” value (WTB [2]; 2.7 m trap) was 757 and the “trap catches, male WTB” value (WTB [2]; 2.7 m trap) was 225. For the same molecule, the “proportion of females responding” value (WTB [3]; higher release rate (15-80 mg/d)) was 0.71, the “proportion of females responding” value (WTB [3]; lower release rate (5 mg/d)) was 0.63 and the “trap catches, female WTB” value (WTB [3]; [4]) was 3072. For the same molecule, the “trap catches, male WTB” value (WTB [3]; [4]) was 1828, the “trap catches, female WTB” value (WTB [3]; [5]) was 3085 and the “trap catches, male WTB” value (WTB [3]; [5]) was 1284. The “difference between release rate treatments” value (WTB [3]; two-sided sign test, pouch vs bottle) was “male response was greater for the lower release rate plastic bottle treatment”.
